Source: PubChem BioAssay (NCI)
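Following 48 hours of exposure in 96-well plates, responses at five concentrations were used to interpolate endpoints linearly. TGI denotes the concentration required for complete inhibition of growth.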

Tests used:
Test in all cases: NCI-60 cell line screen, 48 h
[1] = test system: IGROV1 ovarian
[2] = test system: SK-MEL-5 melanoma
[3] = test system: NCI-H460 lung
[4] = test system: SF-268 CNS
[5] = test system: HS 578T breast
[6] = test system: SF-295 CNS
[7] = test system: SNB-75 CNS
[8] = test system: SK-OV-3 ovarian
[9] = test system: T-47D breast
[10] = test system: KM12 colon
[11] = test system: MDA-MB-435
[12] = test system: MCF7 breast
[13] = test system: HL-60(TB) leukemia
[14] = test system: MDA-N
[15] = test system: LOX IMVI melanoma
[16] = test system: MDA-MB-231 breast
[17] = test system: HT29 colon
[18] = test system: NCI-H23 lung
[19] = test system: A549 NSCLC
[20] = test system: A498 renal
[21] = test system: SK-MEL-28 melanoma
[22] = test system: M14 melanoma
[23] = test system: OVCAR-8 ovarian
[24] = test system: OVCAR-5 ovarian
[25] = test system: COLO 205 colon
[26] = test system: MALME-3M melanoma
[27] = test system: NCI-H226 lung
[28] = test system: HCC-2998 colon
[29] = test system: SN12C renal
[30] = test system: SR leukemia
[31] = test system: TK-10 renal
[32] = test system: 786-0 renal
[33] = test system: RPMI-8226 leukemia
[34] = test system: RXF 393 renal
[35] = test system: K-562 leukemia
[36] = test system: UO-31 renal
[37] = test system: SF-539 CNS
[38] = test system: HCT-116 colon
[39] = test system: SW-620 colon
[40] = test system: UACC-257 melanoma
[41] = test system: U251 CNS
[42] = test system: HOP-62 NSCLC
[43] = test system: BT-549 breast
[44] = test system: UACC-62 melanoma
[45] = test system: NCI/ADR-RES ovarian
[46] = test system: ACHN renal
[47] = test system: HCT-15 colon
[48] = test system: HOP-92 NSCLC
[49] = test system: DU-145 prostate
[50] = test system: SNB-19 CNS
[51] = test system: NCI-H522 lung
[52] = test system: EKVX NSCLC
[53] = test system: MOLT-4 leukemia
[54] = test system: SK-MEL-2 melanoma
[55] = test system: CCRF-CEM leukemia
[56] = test system: PC-3 prostate
[57] = test system: CAKI-1 renal
[58] = test system: OVCAR-4 ovarian
[59] = test system: OVCAR-3 ovarian

Question: `C/C(=N\NC(=S)N1CCN(c2ccccn2)CC1)c1cccc(C)n1` was tested. Which TGI [1] did it give?
Answer: 4.01 µM

Question: What about the TGI [2] of the same molecule?
Answer: 7.06 µM

Question: What about the TGI [3] of the same molecule?
Answer: 11.9 µM

Question: What about the TGI [4] of the same molecule?
Answer: 19.9 µM

Question: What about the TGI [5] of the same molecule?
Answer: 43.5 µM

Question: And the TGI [6]?
Answer: 12.3 µM

Question: And the TGI [7]?
Answer: 12.5 µM

Question: And the TGI [8]?
Answer: 21.4 µM

Question: What about the TGI [9] of the same molecule?
Answer: 35 µM

Question: And the TGI [10]?
Answer: 18 µM

Question: What about the TGI [11] of the same molecule?
Answer: 17.4 µM

Question: And the TGI [12]?
Answer: 12.4 µM

Question: And the TGI [13]?
Answer: 17.6 µM

Question: And the TGI [14]?
Answer: 17.8 µM

Question: What about the TGI [15] of the same molecule?
Answer: 17.8 µM

Question: What about the TGI [16] of the same molecule?
Answer: 13.1 µM

Question: What about the TGI [17] of the same molecule?
Answer: 14.5 µM

Question: What about the TGI [18] of the same molecule?
Answer: 21.8 µM

Question: And the TGI [19]?
Answer: 18.5 µM

Question: What about the TGI [20] of the same molecule?
Answer: 6.33 µM

Question: What about the TGI [21] of the same molecule?
Answer: 25.3 µM

Question: And the TGI [22]?
Answer: 9.23 µM

Question: And the TGI [23]?
Answer: 14.1 µM

Question: And the TGI [24]?
Answer: 13.3 µM

Question: And the TGI [25]?
Answer: 11.3 µM

Question: What about the TGI [26] of the same molecule?
Answer: 19.3 µM

Question: What about the TGI [27] of the same molecule?
Answer: 9.38 µM

Question: And the TGI [28]?
Answer: 24.8 µM

Question: And the TGI [29]?
Answer: 21.9 µM

Question: What about the TGI [30] of the same molecule?
Answer: > 100 µM

Question: And the TGI [31]?
Answer: 21.5 µM

Question: What about the TGI [32] of the same molecule?
Answer: 3.31 µM

Question: What about the TGI [33] of the same molecule?
Answer: 12.6 µM

Question: What about the TGI [34] of the same molecule?
Answer: 4.98 µM

Question: And the TGI [35]?
Answer: > 38.2 µM

Question: And the TGI [36]?
Answer: 30.6 µM

Question: What about the TGI [37] of the same molecule?
Answer: 6.12 µM

Question: And the TGI [38]?
Answer: 10.5 µM

Question: What about the TGI [39] of the same molecule?
Answer: 14.2 µM

Question: And the TGI [40]?
Answer: 16.8 µM

Question: What about the TGI [41] of the same molecule?
Answer: 17.5 µM

Question: What about the TGI [42] of the same molecule?
Answer: 20.1 µM

Question: And the TGI [43]?
Answer: 18 µM

Question: And the TGI [44]?
Answer: 7.16 µM

Question: And the TGI [45]?
Answer: 27.5 µM

Question: What about the TGI [46] of the same molecule?
Answer: 12.7 µM

Question: What about the TGI [47] of the same molecule?
Answer: 16 µM

Question: What about the TGI [48] of the same molecule?
Answer: 14.3 µM

Question: What about the TGI [49] of the same molecule?
Answer: 14.6 µM

Question: And the TGI [50]?
Answer: 19.9 µM

Question: And the TGI [51]?
Answer: 0.59 µM

Question: What about the TGI [52] of the same molecule?
Answer: 10.5 µM

Question: What about the TGI [53] of the same molecule?
Answer: 53.2 µM

Question: And the TGI [54]?
Answer: 6.78 µM

Question: What about the TGI [55] of the same molecule?
Answer: > 100 µM

Question: Which TGI [1] does the source give for `O=C(O)CCC[C@]1(O)O[C@@]2(CCCC2=O)[C@]2(O)CCC[C@@]21O` here?
Answer: > 100 µM

Question: What about the TGI [2] of the same molecule?
Answer: > 100 µM

Question: What about the TGI [3] of the same molecule?
Answer: > 100 µM

Question: And the TGI [4]?
Answer: > 100 µM

Question: What about the TGI [5] of the same molecule?
Answer: > 100 µM

Question: What about the TGI [6] of the same molecule?
Answer: 64.4 µM

Question: And the TGI [56]?
Answer: > 100 µM

Question: What about the TGI [7] of the same molecule?
Answer: > 100 µM

Question: And the TGI [9]?
Answer: > 100 µM

Question: And the TGI [10]?
Answer: > 100 µM

Question: What about the TGI [12] of the same molecule?
Answer: > 100 µM

Question: What about the TGI [13] of the same molecule?
Answer: > 100 µM

Question: What about the TGI [14] of the same molecule?
Answer: > 100 µM

Question: What about the TGI [15] of the same molecule?
Answer: > 100 µM

Question: What about the TGI [16] of the same molecule?
Answer: > 100 µM

Question: What about the TGI [17] of the same molecule?
Answer: > 100 µM

Question: What about the TGI [18] of the same molecule?
Answer: > 100 µM

Question: And the TGI [19]?
Answer: > 100 µM

Question: What about the TGI [20] of the same molecule?
Answer: > 100 µM

Question: And the TGI [21]?
Answer: > 100 µM

Question: What about the TGI [22] of the same molecule?
Answer: > 100 µM

Question: And the TGI [23]?
Answer: > 100 µM

Question: And the TGI [24]?
Answer: > 100 µM

Question: What about the TGI [25] of the same molecule?
Answer: > 100 µM

Question: What about the TGI [26] of the same molecule?
Answer: > 100 µM

Question: What about the TGI [27] of the same molecule?
Answer: > 100 µM

Question: What about the TGI [29] of the same molecule?
Answer: > 100 µM

Question: And the TGI [30]?
Answer: > 100 µM

Question: And the TGI [31]?
Answer: > 100 µM

Question: And the TGI [32]?
Answer: > 100 µM

Question: What about the TGI [33] of the same molecule?
Answer: > 100 µM

Question: And the TGI [34]?
Answer: > 100 µM

Question: And the TGI [35]?
Answer: > 100 µM

Question: And the TGI [36]?
Answer: > 100 µM

Question: And the TGI [37]?
Answer: > 100 µM

Question: What about the TGI [38] of the same molecule?
Answer: > 100 µM

Question: And the TGI [39]?
Answer: > 100 µM

Question: What about the TGI [40] of the same molecule?
Answer: > 100 µM

Question: And the TGI [41]?
Answer: > 100 µM

Question: What about the TGI [57] of the same molecule?
Answer: > 100 µM

Question: And the TGI [42]?
Answer: > 100 µM

Question: What about the TGI [43] of the same molecule?
Answer: > 100 µM

Question: And the TGI [44]?
Answer: > 100 µM

Question: And the TGI [45]?
Answer: > 100 µM

Question: And the TGI [58]?
Answer: > 100 µM

Question: What about the TGI [46] of the same molecule?
Answer: > 100 µM

Question: What about the TGI [47] of the same molecule?
Answer: > 100 µM

Question: What about the TGI [48] of the same molecule?
Answer: > 100 µM

Question: And the TGI [49]?
Answer: > 100 µM

Question: And the TGI [50]?
Answer: > 100 µM

Question: And the TGI [51]?
Answer: 0.228 µM

Question: And the TGI [52]?
Answer: > 100 µM

Question: And the TGI [59]?
Answer: > 100 µM

Question: What about the TGI [53] of the same molecule?
Answer: > 100 µM

Question: And the TGI [54]?
Answer: > 100 µM
